# Test results as given in US10604554B2, “Double-acylated GLP-1 derivatives” (Novo Nordisk A/S, priority 2012, dated 2020).
# Read-outs that look alike come from different tables or passages of the source.
# Assays:
# human GLP-1 receptor [1] = target: T1, human GLP-1 receptor (Homo sapiens, UniProt P43220); test: GLP-1 receptor binding (SPA, displacement of 125I-GLP-1)
# T1 construct: expressed in transfected cells; host or cells: BHK cells, clone FCW467-12A/KZ10-1 (parent line BHKTS13), further transfected with CRE luciferase
# T1 sequence (P43220 24-463): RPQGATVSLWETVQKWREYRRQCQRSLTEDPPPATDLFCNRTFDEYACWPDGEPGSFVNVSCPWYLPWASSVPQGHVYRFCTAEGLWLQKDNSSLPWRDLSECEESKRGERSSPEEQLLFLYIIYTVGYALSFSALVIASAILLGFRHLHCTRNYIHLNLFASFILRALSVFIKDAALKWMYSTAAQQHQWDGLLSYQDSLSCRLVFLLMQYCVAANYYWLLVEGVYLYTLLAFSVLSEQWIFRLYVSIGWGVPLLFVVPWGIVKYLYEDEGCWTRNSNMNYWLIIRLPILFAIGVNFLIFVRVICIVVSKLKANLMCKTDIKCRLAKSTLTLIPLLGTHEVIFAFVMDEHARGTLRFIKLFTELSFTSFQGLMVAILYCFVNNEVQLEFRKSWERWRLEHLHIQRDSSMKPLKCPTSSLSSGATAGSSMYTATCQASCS
# Procedure, shortened: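 Membranes from a stably transfected hamster cell line, 5-10 ug protein/sample, with WGA SPA beads and [125I]-GLP-1(7-36)NH2 at 0.06 nM final. Incubated 120 min at 30 °C with shaking, then counted.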
# in vivo [2] = settings: male, Göttingen, minipig, iv
# Method: The purpose of this study is to determine the protraction in vivo of the GLP-1 derivatives after i.v. administration to minipigs, i.e. the prolongation of their time of action. This is done in a pharmacokinetic (PK) study, where the terminal half-life of the derivative in question is determined. By terminal half-life is generally meant the period of time it takes to halve a certain plasma concentration, measured after the initial distribution phase.
# Study A: Male Göttingen minipigs were obtained from Ellegaard Göttingen Minipigs (Dalmose, Denmark) approximately 7-14 months of age and weighing from approximately 16-35 kg were used in the studies. The minipigs were housed individually and fed restrictedly once or twice daily with SDS minipig diet (Special Diets Services, Essex, UK). After at least 2 weeks of acclimatisation two permanent central venous catheters were implanted in vena cava caudalis or cranialis in each animal. The animals were allowed 1 week recovery after the surgery, and were then used for repeated pharmacokinetic studies with a suitable wash-out period between successive GLP-1 derivative dosings.
# The animals were fasted for approximately 18 h before dosing and from 0 to 4 h after dosing, but had ad libitum access to water during the whole period.
# The GLP-1 derivatives were dissolved in 50 mM sodium phosphate, 145 mM sodium chloride, 0.05% tween 80, pH 7.4 to a concentration of usually from 20-60 nmol/ml. […] Blood samples (for example 0.8 ml) were collected in EDTA buffer (8 mM) and then centrifuged at 4° C. and 1942 G for 10 minutes.
# Study B: Male Göttingen minipigs were obtained from Ellegaard Göttingen Minipigs (Dalmose, Denmark) approximately 5 months of age and weighing from approximately 9 kg were used in the studies. The minipigs were housed in pens with straw as bedding, six together in each pen and fed restrictedly once or twice daily with Altromin 9023 minipig diet (Chr. Petersen A/S, DK-4100 Ringsted) or Standard SMP(E) minipig diet (Special Diet Services (SDS), UK). The pigs were used for repeated pharmacokinetic studies with a suitable wash-out period between successive GLP-1 derivative dosings.
# The GLP-1 derivatives were dissolved in 50 mM sodium phosphate, 145 mM sodium chloride, 0.05% tween 80, pH 7.4 to a concentration of usually from 20-60 nmol/ml. Intravenous injections (the volume corresponding to usually 2 nmol/kg, for example 0.1 ml/kg) of the compounds were given as intravenous injections via a Venflon inserted in an ear vein, while they are placed unanaesthetised in a sling. The dose volume was 0.1 ml/kg, and blood was sampled at predefined time points for up till 17 days post dosing (samples was taken with syringe from a jugular vein).
# Individual plasma concentration-time profiles were analyzed by a non-compartmental model in Phoenix WinNonLin ver. […] (Pharsight Inc., Mountain View, Calif., USA), and the resulting terminal half-lives (harmonic mean) determined.
# in vivo [3] = settings: male, Sprague Dawley, rat, iv
# Method: The purpose of this Example is to investigate half-life in vivo in rat.
# In vivo pharmacokinetic studies in rats were performed with the GLP-1 derivatives of a number of the Example compounds, as described in the following.
# Male Sprague Dawley rats of same age with a body weight of approximately 400 g were obtained from Taconic (Denmark) and assigned to the treatments by simple randomisation on body weight, approximately 4 rats per group.
# The GLP-1 derivatives (approximately 6 nmol/ml) were dissolved in 50 mM sodium phosphate, 145 mM sodium chloride, 0.05% tween 80, pH 7.4. Intravenous injections (1.0 ml/kg) of the compounds were given with a syringe in the tail vein of conscious rats. Blood was sampled from vena sublingualis for 5 days post dosing. Blood samples (200 μl) were collected in EDTA buffer (8 mM) and then centrifuged at 4° C. and 10000 G for 5 minutes. Plasma samples were kept at −20° C. until analyzed for plasma concentration of the respective GLP-1 compound.
# The donor beads were coated with streptavidin, while acceptor beads were conjugated with a monoclonal antibody recognising a mid-/C-terminal epitope of the peptide. Another monoclonal antibody, specific for the N-terminus, was biotinylated. The three reactants were combined with the analyte and formed a two-sited immuno-complex. Illumination of the complex released singlet oxygen atoms from the donor beads, which were channeled into the acceptor beads and triggered chemiluminescence which was measured in an Envision plate reader. The amount of light was proportional to the concentration of the compound.
# Plasma concentration-time profiles were analyzed using Phoenix WinNonLin ver. 6.2, Pharsight Inc., Mountain View, Calif., USA), and the half-life (T1/2) calculated using individual plasma concentration-time profiles from each animal.
# human GLP-1 receptor [4] = target: T1, human GLP-1 receptor; test: In vitro potency (CRE luciferase; whole cells); assay type: cell-based; settings: BHK cells
# Procedure, shortened: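 Stably transfected BHK cells carrying human GLP-1R and a CRE–firefly luciferase reporter, 5×10^3 cells/well in assay medium, run with 0% or 1% HSA in assay buffer.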
compound,measurement,setting,value
"CC[C@H](C)[C@H](NC(=O)[C@H](Cc1ccccc1)NC(=O)[C@H](CCC(=O)O)NC(=O)[C@H](CCCCNC(=O)[C@@H](N)CCCCNC(=O)COCCOCCNC(=O)CC[C@H](NC(=O)CC[C@H](NC(=O)CCCCCCCCCCCCCCC(=O)O)C(=O)O)C(=O)O)NC(=O)[C@H](C)NC(=O)[C@H](C)NC(=O)[C@H](CCC(N)=O)NC(=O)CNC(=O)[C@H](CCC(=O)O)NC(=O)[C@H](CC(C)C)NC(=O)[C@H](Cc1ccc(O)cc1)NC(=O)[C@H](CO)NC(=O)[C@H](CO)NC(=O)[C@@H](NC(=O)[C@H](CC(=O)O)NC(=O)[C@H](CO)NC(=O)[C@@H](NC(=O)[C@H](Cc1ccccc1)NC(=O)[C@@H](NC(=O)CNC(=O)[C@H](CCC(=O)O)NC(=O)C(C)(C)NC(=O)[C@@H](N)Cc1c[nH]cn1)[C@@H](C)O)[C@@H](C)O)C(C)C)C(=O)N[C@@H](C)C(=O)N[C@@H](Cc1c[nH]c2ccccc12)C(=O)N[C@@H](CC(C)C)C(=O)N[C@H](C(=O)N[C@@H](CCCNC(=N)N)C(=O)NCC(=O)N[C@@H](CCCNC(=N)N)C(=O)N[C@@H](CCCCNC(=O)[C@@H](N)CCCCNC(=O)COCCOCCNC(=O)CC[C@H](NC(=O)CC[C@H](NC(=O)CCCCCCCCCCCCCCC(=O)O)C(=O)O)C(=O)O)C(=O)O)C(C)C [Example 11, N^ε26-[(2S)-2-amino-6-[[2-[2-[2-[[(4S)-4-carboxy-4-[[(4S)-4-carboxy-4-(15-carboxypentadecanoylamino)butanoyl]amino]butanoyl]amino]ethoxy]ethoxy]acetyl]amino]hexanoyl], N^ε37-[(2S)-2-amino-6-[[2-[2-[2-[[(4S)-4-carboxy-4-[[(4S)-4-carboxy-4-(15-carboxypentadecanoylamino)butanoyl]amino]butanoyl]amino]ethoxy]ethoxy]acetyl]amino]hexanoyl]-[Aib^8,Arg^34, Lys^37]-GLP-1-(7-37)-peptide]",IC50,"human GLP-1 receptor [1]; 0.001% HSA (low albumin), read-out: Receptor binding affinity IC50 (low HSA)",0.74 nM
same,IC50 (high HSA),"human GLP-1 receptor [1]; Receptor binding affinity IC50 (high HSA), 2.0% HSA (high albumin), heading: Receptor binding affinity IC50",522 nM
same,half-life,in vivo [2],95 h
same,half-life,in vivo [3],28 h
same,EC50,"human GLP-1 receptor [4]; 0% HSA, read-out: In vitro potency (CRE luciferase) EC50 (0% HSA)",0.0073 nM
same,EC50,"human GLP-1 receptor [4]; In vitro potency (CRE luciferase) EC50 (1% HSA), 1% HSA",1.57 nM
